In patent US12673034B2, “Peptides, compounds, compositions and methods for inhibiting SOX9” (CRITICAL OUTCOME TECHNOLOGIES INC., priority 2019, dated 2026):
Numbering of substitutions follows the chain as printed. Read-outs that look alike come from different tables or passages of the source.

How the values were obtained:
SOX9 [1] = target: T1, SOX9 (Mus musculus, UniProt Q04887); assay: SOX9 target gene expression in chondrogenic cell line ATDC5; type: cell-based; parameters: in the chondrogenic cell line ATDC5; endogenous in cells; host or cells: ATDC5 chondrogenic cell line
T1 sequence (Q04887 1-507): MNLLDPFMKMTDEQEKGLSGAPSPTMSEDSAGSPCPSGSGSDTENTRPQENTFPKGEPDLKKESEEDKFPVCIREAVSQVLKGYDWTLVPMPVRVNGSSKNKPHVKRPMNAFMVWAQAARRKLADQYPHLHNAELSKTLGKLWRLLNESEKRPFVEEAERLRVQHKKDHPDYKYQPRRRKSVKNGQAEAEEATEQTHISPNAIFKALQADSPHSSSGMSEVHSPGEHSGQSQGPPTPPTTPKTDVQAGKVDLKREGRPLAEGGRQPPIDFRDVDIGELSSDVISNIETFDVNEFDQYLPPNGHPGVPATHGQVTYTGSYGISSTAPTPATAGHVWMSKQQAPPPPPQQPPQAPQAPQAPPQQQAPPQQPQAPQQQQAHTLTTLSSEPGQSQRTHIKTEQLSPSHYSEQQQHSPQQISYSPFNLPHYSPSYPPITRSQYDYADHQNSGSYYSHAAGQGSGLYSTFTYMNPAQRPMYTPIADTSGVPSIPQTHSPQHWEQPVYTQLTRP
From the text: (§1) To identify small molecule inhibitors of SOX9 design efforts focused on the septameric peptide sequence (IREAVSQ, SEQ ID NO:1, underlined in the SOX-DIMER sequence given above) identified as a subregion of the known SOX9 dimerization domain with a high likelihood of direct participation in dimerization. This prediction was based on the position of the human mutation that causes the skeletal but not the sex reversal abnormalities of campomelic dyskplasia (Bernard et al 2003). A computational screen of ˜12 million compounds was performed to identify small molecules predicted to interfere with SOX9 dimerization, based on the physical-chemical properties of the SOX-DIMER peptide motif.
Some of the inhibitor compounds were also tested on ATDC5 cells for their effect on SOX9 target gene expression by q-PCR (aggrecan data is shown in FIG. 11) and on LX-2 (human hepatocyte (stellate cells) cells for collagen gene expression (associated with liver fibrosis), as shown in FIG. 12.

SOX9 [2] = target: T2, SOX9 (Rattus norvegicus, UniProt F1LYL9); assay: Q-PCR of SOX9 and SOX9 target gene expression in primary rat astrocyte cultures; type: cell-based; details: 10 μM
T2 construct: endogenous in cells; host or cells: primary rat astrocyte cultures
T2 sequence (F1LYL9 1-507): T1 sequence (Q04887 1-507) with T314S, Q368P, P369Q, S427N, P432T, A441T
Procedure: FIG. 2 graphically depicts results from treatment of two-week old rat astrocytes for 48 h (hours) with 10 μM SOX-DIMER (white), which show decreased SOX9 target gene expression compared to control (FLAG-Tat) peptide-treated cultures (black) (* indicates statistical significance P<0.05, two-tailed t-test; N=4);
Primary astrocyte cultures were treated with 10 μM SOX-DIMER peptide or of a control peptide (FLAG-Tat) for 48 h and then harvested RNA.
as §1

[3] = Spinal cord concentration after intravenous injection, UPLC coupled to mass spectrometry; type: in vivo, rat
Procedure: Compound 1 was delivered intrathecally as it was initially unknown the inhibitory compound could cross the blood brain barrier. To resolve this issue a subsequent study was carried out in which control and T9 spinal cord injured rats were given intravenous injections of compound 1 (1 or 10 nmol/g) or of vehicle at 24 and 48 h after SCI and sacrificed 24 h later. […] Compound 1 was even found in the spinal cords after dosing uninjured controls (FIG. 6).
Using a standard curve, the concentration of compound 1 in the injured spinal cord after a 10 nmol/g iv injection was determined to be 2.7 μM at the lesion epicenter, 1.9 μM in the lumbar cord and 1.02 μM in the uninjured cord.

[4] = test system: CSPG levels in the injured rat spinal cord; assay: CSPG levels in injured rat spinal cord, biotinylated-WFA staining; type: in vivo; details: T9 200 kdyne SCI, intrathecal pump approximately 400 μg/Kg/day for 4 weeks, sections caudal to the lesion, vs vehicle
Procedure: To assess the effect of compound 1 on CSPG levels in the injured rat spinal cord, compound 1 or vehicle was delivered by an intrathecal pump delivering compound 1 at approximately 400 μg/Kg/day for 4 weeks starting immediately after a 200 kdyne T9 thoracic SCI. This dose was predicted to result in a concentration of compound 1 of between 10 and 30 μM based on an estimated cerebrospinal fluid volume of 580 μL (Murtha et al 2014) and a turnover rate of about 12-13 times per day (Simon et al 1995).

SOX9 [5] = target: T1, SOX9; assay: SOX9 target gene expression in primary mouse astrocyte cultures; type: cell-based; parameters: primary mouse and rat astrocyte cultures; endogenous in cells; host or cells: primary mouse astrocyte cultures; details: primary mouse astrocyte cultures (FIG. 3)
spinal cord injured rats = assay: Locomotor recovery (hind limb function, open field test, BBB score) after thoracic SCI; type: in vivo; details: rat, T9 200 kdyne SCI, intrathecal approximately 400 μg/Kg/day
Procedure: In a longer-term study, compound 1 (approximately 400 μg/Kg/day) or vehicle was again delivered intrathecally to rats immediately after a T9, 200 kdyne SCI, and hind limb function was evaluated twice per week by an observer blinded to treatment group in an open field test for […] (FIG. 5). […] By day 56 the compound 1-treated rats achieved average locomotor BBB scores (Basso et al 1995) of 12.4±0.8 indicating consistent weight supported plantar placement and occasional forelimb/hind limb coordination while the vehicle-treated rats only achieved an average locomotor BBB score of 10.4±0.7, indicating occasional weight supported planter placement with no forelimb/hind limb coordination.

| Compound | SOX9 target gene expression (SOX9 [1]) | SOX9 target gene expression (SOX9 [2]; primary rat astrocyte cultures, 48 h vs vehicle (FIG. 3)) | concentration at 24 h after the last injection ([3]; lesion epicenter, T9 spinal cord injured rat, 10 nmol/g iv at 24 and 48 h after SCI, sacrificed 24 h later, read-out: concentration in spinal cord at the lesion epicenter) [nM] | concentration at 24 h after the last injection ([3]; lumbar enlargement (distal to the lesion), T9 spinal cord injured rat, 10 nmol/g iv at 24 and 48 h after SCI, sacrificed 24 h later, read-out: concentration in the lumbar cord) [nM] | reduction of spinal cord concentrations after 1 nmol/g relative to 10 nmol/g ([3]; rat, 1 nmol/g iv injections) [fold] | penetration of the blood-spinal cord barrier ([3]; rat, 10 nmol/g iv, control or spinal cord injured) | concentration at 24 h after the last injection ([3]; uninjured spinal cord, uninjured control rat, 10 nmol/g iv, read-out: concentration in the uninjured cord) [nM] | reduction in CSPG levels (WFA staining) [4] [fold] | SOX9 target gene expression (SOX9 [5]) | average locomotor BBB score (spinal cord injured rats; day 56) | hind limb function in open field test (spinal cord injured rats; vs vehicle) | expression of SOX9 and SOX9 target genes (XT-1, XT-2, Hapln1, Collagen 2a1, GFAP, aggrecan, brevican) (SOX9 [2]; 48 h, primary astrocyte cultures, vs control peptide FLAG-Tat, Q-PCR (FIG. 2)) |
| --- | --- | --- | --- | --- | --- | --- | --- | --- | --- | --- | --- | --- |
| COc1ccc(C(=O)N2CCN(C)CC2)cc1NC(=O)COc1cc(C)ccc1C(C)C [compound 1] | decrease SOX9 target gene expression | decrease SOX9 target gene expression | 2700 | 1900 | 10 | can penetrate the blood-spinal cord barrier | 1020 | 3 | decrease SOX9 target gene expression | 12.4±0.8 | statistically significant improvement | – |
| SOX-DIMER: fusion between the SOX9 dimerization motif (DKFPVCIREAVSQVLKGYDW, SEQ ID NO. 2) and the protein transduction domain of the HIV-1 Tat protein (DKFPVCIREAVSQVLKGYDWKYGRKKRRQRRR) | – | – | – | – | – | – | – | – | – | – | – | significantly reducing the expression of SOX9 and SOX9 target genes |
